Results published in ChEMBL document CHEMBL1909294, “Translating clinical findings into knowledge in drug safety evaluation--drug induced liver injury prediction system (DILIps)” (PLoS Comput Biol, 2011).

How the values were obtained:
Hepatotoxicity [1] = system: Hepatotoxicity;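 as to HepSE bilirubinemia: bilirubinemia hepatic side effect score drawn from the DILIps training data, a prediction system for drug-induced liver injury; call rule not given here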;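 as to HepSE cholecystitis: Cholecystitis-related hepatic side effect score drawn from the DILIps (drug-induced liver injury prediction) training data set; call rule not given here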;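 as to HepSE cholelithiasis: hepatic side effect score for cholelithiasis, drawn from the DILIps training data for predicting drug-induced liver injury; call rule not given here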;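 as to HepSE cirrhosis: cirrhosis hepatic side effect score taken from the DILIps (drug-induced liver injury prediction) training set; call rule not given here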;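 as to HepSE elevated liver function tests: hepatic side effect score for raised liver function tests, as recorded in the DILIps training set used for predicting drug-induced liver injury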; as to HepSE hepatic failure: call rule not given here;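 as to HepSE hepatomegaly: hepatic side effect score for hepatomegaly, taken from the training set of the DILIps drug-induced liver injury prediction system; call rule not given here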
Hepatotoxicity [2] = system: Hepatotoxicity; remark: listed apart in the source;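 as to HepSE bilirubinemia: bilirubinemia hepatic side effect score drawn from the DILIps training data, a prediction system for drug-induced liver injury; call rule not given here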;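 as to HepSE cholecystitis: Cholecystitis-related hepatic side effect score drawn from the DILIps (drug-induced liver injury prediction) training data set; call rule not given here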;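 as to HepSE cholelithiasis: hepatic side effect score for cholelithiasis, drawn from the DILIps training data for predicting drug-induced liver injury; call rule not given here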;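 as to HepSE cirrhosis: cirrhosis hepatic side effect score taken from the DILIps (drug-induced liver injury prediction) training set; call rule not given here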;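 as to HepSE elevated liver function tests: hepatic side effect score for raised liver function tests, as recorded in the DILIps training set used for predicting drug-induced liver injury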; as to HepSE hepatic failure: call rule not given here
Hepatotoxicity [3] = system: Hepatotoxicity; remark: listed apart in the source;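 as to HepSE bilirubinemia: bilirubinemia hepatic side effect score drawn from the DILIps training data, a prediction system for drug-induced liver injury; call rule not given here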;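 as to HepSE cholecystitis: Cholecystitis-related hepatic side effect score drawn from the DILIps (drug-induced liver injury prediction) training data set; call rule not given here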;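 as to HepSE cholelithiasis: hepatic side effect score for cholelithiasis, drawn from the DILIps training data for predicting drug-induced liver injury; call rule not given here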;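 as to HepSE cirrhosis: cirrhosis hepatic side effect score taken from the DILIps (drug-induced liver injury prediction) training set; call rule not given here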;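 as to HepSE elevated liver function tests: hepatic side effect score for raised liver function tests, as recorded in the DILIps training set used for predicting drug-induced liver injury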; as to HepSE hepatic failure: call rule not given here
Hepatotoxicity [4] = system: Hepatotoxicity; remark: listed apart in the source;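 as to HepSE bilirubinemia: bilirubinemia hepatic side effect score drawn from the DILIps training data, a prediction system for drug-induced liver injury; call rule not given here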;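 as to HepSE cholecystitis: Cholecystitis-related hepatic side effect score drawn from the DILIps (drug-induced liver injury prediction) training data set; call rule not given here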;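 as to HepSE cholelithiasis: hepatic side effect score for cholelithiasis, drawn from the DILIps training data for predicting drug-induced liver injury; call rule not given here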;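 as to HepSE cirrhosis: cirrhosis hepatic side effect score taken from the DILIps (drug-induced liver injury prediction) training set; call rule not given here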;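 as to HepSE elevated liver function tests: hepatic side effect score for raised liver function tests, as recorded in the DILIps training set used for predicting drug-induced liver injury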; as to HepSE hepatic failure: call rule not given here
Hepatotoxicity [5] = system: Hepatotoxicity; remark: listed apart in the source; as to HepSE hepatic failure: call rule not given here
Hepatotoxicity [6] = system: Hepatotoxicity; remark: listed apart in the source; as to HepSE hepatic failure: call rule not given here
Hepatotoxicity [7] = system: Hepatotoxicity; remark: listed apart in the source
Hepatotoxicity [8] = system: Hepatotoxicity; remark: listed apart in the source
Hepatotoxicity [9] = system: Hepatotoxicity; remark: listed apart in the source
Hepatotoxicity [10] = system: Hepatotoxicity; remark: listed apart in the source
Hepatotoxicity [11] = system: Hepatotoxicity; remark: listed apart in the source
Hepatotoxicity [12] = system: Hepatotoxicity; remark: listed apart in the source
Hepatotoxicity [13] = system: Hepatotoxicity; remark: listed apart in the source
Hepatotoxicity [14] = system: Hepatotoxicity; remark: listed apart in the source

SMILES	HepSE_bilirubinemia (Hepatotoxicity [1]; Liver)	HepSE_cholecystitis (Hepatotoxicity [2]; Liver)	HepSE_cholelithiasis (Hepatotoxicity [3]; Liver)	HepSE_cirrhosis (Hepatotoxicity [4]; Liver)	HepSE_elevated liver function tests (Hepatotoxicity [5]; Liver)	HepSE_hepatic failure (Hepatotoxicity [6]; Liver)	HepSE_bilirubinemia (Hepatotoxicity [1])	HepSE_cholecystitis (Hepatotoxicity [2])	HepSE_cholelithiasis (Hepatotoxicity [3])	HepSE_cirrhosis (Hepatotoxicity [4])	HepSE_elevated liver function tests (Hepatotoxicity [5])	HepSE_hepatic failure (Hepatotoxicity [6])	HepSE_hepatic necrosis (Hepatotoxicity [7])	HepSE_hepatitis (Hepatotoxicity [8])	HepSE_hepatomegaly (Hepatotoxicity [9])	HepSE_jaundice (Hepatotoxicity [10])	HepSE_liver disease (Hepatotoxicity [11])	HepSE_liver fatty (Hepatotoxicity [12])	HepSE_liver function tests abnormal (Hepatotoxicity [13])	HepSE_Combined Scores (Hepatotoxicity [14])	other results
CC(C[N+](C)(C)C)OC(N)=O (stereo unspecified) [BETHANECHOL]	0	0	0	0	0	0	–	–	–	–	–	–	–	–	–	–	–	–	–	–	HepSE_hepatic necrosis (Hepatotoxicity [7]; Liver): 0; HepSE_hepatitis (Hepatotoxicity [8]; Liver): 0; HepSE_hepatomegaly (Hepatotoxicity [9]; Liver): 0; HepSE_jaundice (Hepatotoxicity [10]; Liver): 0; HepSE_liver disease (Hepatotoxicity [11]; Liver): 0; HepSE_liver fatty (Hepatotoxicity [12]; Liver): 0; HepSE_liver function tests abnormal (Hepatotoxicity [13]; Liver): 0; HepSE_Combined Scores (Hepatotoxicity [14]; Liver): 0
C=C(c1ccc(C(=O)O)cc1)c1cc2c(cc1C)C(C)(C)CCC2(C)C [BEXAROTENE]	–	–	–	–	–	–	1	0	0	0	0	1	0	0	0	0	0	0	0	2	–
CC(C)(Oc1ccc(CCNC(=O)c2ccc(Cl)cc2)cc1)C(=O)O [BEZAFIBRATE]	–	–	–	–	–	–	0	0	1	0	0	0	0	0	0	0	0	0	0	1	–
CC(O)(CS(=O)(=O)c1ccc(F)cc1)C(=O)Nc1ccc(C#N)c(C(F)(F)F)c1 (stereo unspecified) [BICALUTAMIDE]	–	–	–	–	–	–	0	0	0	0	0	1	0	0	0	1	0	0	1	3	–
O=C(O)O [BICARBONATE]	0	0	0	0	0	0	–	–	–	–	–	–	–	–	–	–	–	–	–	–	HepSE_hepatic necrosis (Hepatotoxicity [7]; Liver): 0; HepSE_hepatitis (Hepatotoxicity [8]; Liver): 0; HepSE_hepatomegaly (Hepatotoxicity [9]; Liver): 0; HepSE_jaundice (Hepatotoxicity [10]; Liver): 0; HepSE_liver disease (Hepatotoxicity [11]; Liver): 0; HepSE_liver fatty (Hepatotoxicity [12]; Liver): 0; HepSE_liver function tests abnormal (Hepatotoxicity [13]; Liver): 0; HepSE_Combined Scores (Hepatotoxicity [14]; Liver): 0
CCNC(=O)CCC/C=C\C[C@@H]1[C@@H](/C=C/[C@@H](O)CCc2ccccc2)[C@H](O)C[C@@H]1O [BIMATOPROST]	–	–	–	–	–	–	0	0	0	0	0	0	0	0	0	0	0	0	1	1	–
OC(CCN1CCCCC1)(c1ccccc1)C1CC2C=CC1C2 (stereo unspecified) [BIPERIDEN]	–	–	–	–	–	–	0	0	0	0	0	0	0	0	0	0	0	0	0	0	–
CC(C)NCC(O)COc1ccc(COCCOC(C)C)cc1 (stereo unspecified) [BISOPROLOL]	–	–	–	–	–	–	0	0	0	0	0	0	0	0	0	0	0	0	0	0	–
CC(C)C[C@H](NC(=O)[C@H](Cc1ccccc1)NC(=O)c1cnccn1)B(O)O [BORTEZOMIB]	1	0	0	0	0	1	–	–	–	–	–	–	–	–	–	–	–	–	–	–	HepSE_hepatic necrosis (Hepatotoxicity [7]; Liver): 0; HepSE_hepatitis (Hepatotoxicity [8]; Liver): 1; HepSE_hepatomegaly (Hepatotoxicity [9]; Liver): 0; HepSE_jaundice (Hepatotoxicity [10]; Liver): 0; HepSE_liver disease (Hepatotoxicity [11]; Liver): 0; HepSE_liver fatty (Hepatotoxicity [12]; Liver): 0; HepSE_liver function tests abnormal (Hepatotoxicity [13]; Liver): 0; HepSE_Combined Scores (Hepatotoxicity [14]; Liver): 3
